Laboratory results published in publication PMC3880629 (Journal of medicinal chemistry, 2013).
Like-named read-outs stand apart in the source and are kept apart here.

Columns and labels:
CB1 wild-type receptor [1] = target: T1, CB1 wild-type receptor (Homo sapiens, UniProt P21554); format: binding; conditions: for α: binding cooperativity factor between CP55,940 and the tested allosteric modulator: HEK293 cell membranes expressing CB1, tracer [3H]CP55,940
[2] = Solubility in common organic solvents; format: physicochemical; conditions: acetone, ethyl acetate, tetrahydrofuran, dichloromethane, diethyl ether, ethanol and methanol
CB1 wild-type receptor [3] = target: T1, CB1 wild-type receptor; assay: [35S]GTPγS binding assay; format: biochemical; conditions: for Concentration giving complete inhibition of CP55,940-induced [35S]GTPγS binding / Effect on CP55,940-induced [35S]GTPγS binding in the presence of allosteric modulator: HEK293 cell membranes expressing CB1
CB1 wild-type receptor [4] = target: T1, CB1 wild-type receptor; conditions: earlier report, given for comparison; cited from earlier work
CB1 wild-type receptor [5] = target: T1, CB1 wild-type receptor; conditions: cited from earlier work; for Effect on CP55,940-induced [35S]GTPγS binding in the presence of allosteric modulator: earlier report, given for comparison

T1 sequence (P21554 whole entry): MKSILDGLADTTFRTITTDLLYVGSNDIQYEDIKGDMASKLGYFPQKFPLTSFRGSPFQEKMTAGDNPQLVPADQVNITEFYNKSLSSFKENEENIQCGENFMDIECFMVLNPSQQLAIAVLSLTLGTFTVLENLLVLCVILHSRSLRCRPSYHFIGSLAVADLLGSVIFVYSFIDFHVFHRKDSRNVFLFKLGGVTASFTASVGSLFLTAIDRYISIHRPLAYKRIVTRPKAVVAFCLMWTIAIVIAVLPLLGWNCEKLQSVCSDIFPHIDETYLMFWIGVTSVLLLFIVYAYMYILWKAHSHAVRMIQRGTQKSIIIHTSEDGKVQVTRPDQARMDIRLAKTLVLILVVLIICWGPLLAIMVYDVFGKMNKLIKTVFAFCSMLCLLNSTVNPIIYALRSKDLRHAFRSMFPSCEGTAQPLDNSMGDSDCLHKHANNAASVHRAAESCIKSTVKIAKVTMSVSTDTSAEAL

**Q.** Which “α: binding cooperativity factor between CP55,940 and the tested allosteric modulator” value (CB1 wild-type receptor [1]) does the source give for O=C(NCCc1ccc(N2CCCCC2)cc1)c1cc2cc(Cl)ccc2o1 [13a, 5-Chloro-N-(4-(piperidin-1-yl)phenethyl)benzofuran-2-carboxamide] here?
**A.** Its value is 1.0.

**Q.** For O=C(NCCc1ccc(N2CCCCC2)cc1)c1[nH]c2ccc(Cl)cc2c1Cc1ccccc1 [11c, 3-Benzyl-5-chloro-N-(4-(piperidin-1-yl)phenethyl)-1H-indole-2-carboxamide], which “Solubility in organic solvents” value [2] is on record?
**A.** Its value is “very poor solubility”.

**Q.** And the “α: binding cooperativity factor between CP55,940 and the tested allosteric modulator” value (CB1 wild-type receptor [1])?
**A.** The value was 11.37.

**Q.** Which “α: binding cooperativity factor between CP55,940 and the tested allosteric modulator” value (CB1 wild-type receptor [1]) does the source give for CCCCCCCc1c(C(=O)NCCc2ccc(N3CCCCC3)cc2)[nH]c2ccc(Cl)cc12 [11e] here?
**A.** Its value is 7.38.

**Q.** With CCCCCc1c(C(=O)NCCc2ccc(Oc3ccccc3)cc2)[nH]c2ccc(Cl)cc12 [11i, 5-Chloro-3-pentyl-1H-indole-2-carboxylic acid [2-(4-phenoxy-phenyl)-ethyl]-amide] as the molecule, how does the “α: binding cooperativity factor between CP55,940 and the tested allosteric modulator” value (CB1 wild-type receptor [1]) read?
**A.** The value was 13.15.

**Q.** With CCc1c(C(=O)NCCc2ccc(N(C)C)cc2)oc2ccc(Cl)cc12 [13c, 5-Chloro-N-(4-(dimethylamino)phenethyl)-3-ethylbenzofuran-2-carboxamide] as the molecule, how does the “Fold increase in KB on replacing the indole ring with a benzofuran ring” value (CB1 wild-type receptor [1]; 13c versus 11l) read?
**A.** Its value is 3 fold.

**Q.** What about the “α: binding cooperativity factor between CP55,940 and the tested allosteric modulator” value (CB1 wild-type receptor [1]) of the same molecule?
**A.** Its value is 11.59.

**Q.** Which “α: binding cooperativity factor between CP55,940 and the tested allosteric modulator” value (CB1 wild-type receptor [1]) does the source give for CCCCCc1c(C(=O)NCCc2ccc(N3CCOCC3)cc2)[nH]c2ccc(Cl)cc12 [11h, 5-Chloro-N-(4-morpholinophenethyl)-3-pentyl-1H-indole-2-carboxamide] here?
**A.** Its value is 10.0.

**Q.** What about the “Concentration giving complete inhibition of CP55,940-induced [35S]GTPγS binding” value (CB1 wild-type receptor [3]) of the same molecule?
**A.** The value was “at least 10 μM”.

**Q.** And the “Effect on CP55,940-induced [35S]GTPγS binding in the presence of allosteric modulator” value (shortened to “Effect on CP55,940-induced”) (CB1 wild-type receptor [3])?
**A.** Its value is “Antagonizing”.

**Q.** Which “α: binding cooperativity factor between CP55,940 and the tested allosteric modulator” value (CB1 wild-type receptor [1]) does the source give for CN(C)c1ccc(CCNC(=O)c2cc3cc(Cl)ccc3o2)cc1 [13d, 5-Chloro-N-(4-(dimethylamino)phenethyl)benzofuran-2-carboxamide] here?
**A.** The value was 1.0.

**Q.** With CCCCCc1c(C(=O)NCCc2ccc(N3CCCCC3)cc2)[nH]c2ccc(Cl)cc12 [11a, 5-Chloro-3-pentyl-N-(4-(piperidin-1-yl)phenethyl)-1H-indole-2-carboxamide] as the molecule, how does the “α: binding cooperativity factor between CP55,940 and the tested allosteric modulator” value (CB1 wild-type receptor [4]) read?
**A.** Its value is 17.6.

**Q.** And the “Concentration at which G protein coupling was inhibited” value (CB1 wild-type receptor [5])?
**A.** Its value is 3.2 µM.

**Q.** What about the “Effect on CP55,940-induced” value (CB1 wild-type receptor [5]) of the same molecule?
**A.** Its value is “Antagonizing”.

**Q.** What does the source list for O=C(NCCc1ccc(N2CCCCC2)cc1)c1[nH]c2ccc(Cl)cc2c1CC1CCCCC1 [11d, 5-Chloro-3-(cyclohexylmethyl)-N-(4-(piperidin-1-yl)phenethyl)-1H-indole-2-carboxamide]?
**A.** Solubility in organic solvents [2]: very poor solubility; α: binding cooperativity factor between CP55,940 and the tested allosteric modulator (CB1 wild-type receptor [1]): 9.84

**Q.** What does the source list for CCCCCCCCCc1c(C(=O)NCCc2ccc(N3CCCCC3)cc2)[nH]c2ccc(Cl)cc12 [11f]?
**A.** α: binding cooperativity factor between CP55,940 and the tested allosteric modulator (CB1 wild-type receptor [1]): 6.80; Concentration giving complete inhibition of CP55,940-induced [35S]GTPγS binding (CB1 wild-type receptor [3]): at least 10 μM; Effect on CP55,940-induced [35S]GTPγS binding in the presence of allosteric modulator (CB1 wild-type receptor [3]): Antagonizing

**Q.** For CCCCCc1c(C(=O)NC(CO)Cc2ccc(N(C)C)cc2)[nH]c2ccc(Cl)cc12 (centres unmarked) [11k, 5-Chloro-N-(1-(4-(dimethylamino)phenyl)-3-hydroxypropan-2-yl)-3-pentyl-1H-indole-2-carboxamide], which “α: binding cooperativity factor between CP55,940 and the tested allosteric modulator” value (CB1 wild-type receptor [1]) is on record?
**A.** The value was 13.27.

**Q.** Which “Solubility in organic solvents” value [2] does the source give for O=C(NCCc1ccc(N2CCCCC2)cc1)c1[nH]c2ccc(Cl)cc2c1-c1ccccc1 [11b, 5-Chloro-3-phenyl-N-(4-(piperidin-1-yl)phenethyl)-1H-indole-2-carboxamide] here?
**A.** Its value is “very poor solubility”.

**Q.** What about the “α: binding cooperativity factor between CP55,940 and the tested allosteric modulator” value (CB1 wild-type receptor [1]) of the same molecule?
**A.** The value was 1.0.

**Q.** Which “α: binding cooperativity factor between CP55,940 and the tested allosteric modulator” value (CB1 wild-type receptor [4]) does the source give for CCc1c(C(=O)NCCc2ccc(N3CCCCC3)cc2)[nH]c2ccc(Cl)cc12 [compound 1, 5-chloro-3-ethyl-N-(4-(piperidin-1-yl)phenethyl)-1H-indole-2-carboxamide, reference compound] here?
**A.** Its value is 6.95.

**Q.** What about the “Concentration at which G protein coupling was inhibited” value (CB1 wild-type receptor [5]) of the same molecule?
**A.** Its value is 3.2 µM.

**Q.** And the “Effect on CP55,940-induced” value (CB1 wild-type receptor [5])?
**A.** Its value is “Antagonizing”.

**Q.** For CCc1c(C(=O)NCCc2ccc(N3CCCCC3)cc2)oc2ccc(Cl)cc12 [13b, 5-Chloro-3-ethyl-N-(4-(piperidin-1-yl)phenethyl)benzofuran-2-carboxamide], which “α: binding cooperativity factor between CP55,940 and the tested allosteric modulator” value (CB1 wild-type receptor [1]) is on record?
**A.** The value was 18.04.

**Q.** What about the “Concentration giving complete inhibition of CP55,940-induced [35S]GTPγS binding” value (CB1 wild-type receptor [3]) of the same molecule?
**A.** The value was “at least 10 μM”.

**Q.** What about the “Effect on CP55,940-induced” value (CB1 wild-type receptor [3]) of the same molecule?
**A.** The value was “Antagonizing”.

**Q.** For CCc1c(C(=O)NCCc2ccc(N(C)C)cc2)[nH]c2ccc(Cl)cc12 [11l, 5-Chloro-N-(4-(dimethylamino)phenethyl)-3-ethyl-1H-indole-2-carboxamide], which “α: binding cooperativity factor between CP55,940 and the tested allosteric modulator” value (CB1 wild-type receptor [1]) is on record?
**A.** Its value is 19.68.

**Q.** For CCCCCc1c(C(=O)NCc2ccc(N3CCCCC3)cc2)[nH]c2ccc(Cl)cc12 [11g, 5-Chloro-3-pentyl-N-(4-(piperidin-1-yl)benzyl)-1H-indole-2-carboxamide], which “α: binding cooperativity factor between CP55,940 and the tested allosteric modulator” value (CB1 wild-type receptor [1]) is on record?
**A.** The value was 1.0.

**Q.** Which “α: binding cooperativity factor between CP55,940 and the tested allosteric modulator” value (CB1 wild-type receptor [1]) does the source give for CCCCCc1c(C(=O)NCCc2ccc(N(C)C)cc2)[nH]c2ccc(Cl)cc12 [11j, 5-Chloro-N-(4-(dimethylamino)phenethyl)-3-pentyl-1H-indole-2-carboxamide] here?
**A.** The value was 16.55.

**Q.** What about the “Concentration giving complete inhibition of CP55,940-induced [35S]GTPγS binding” value (CB1 wild-type receptor [3]) of the same molecule?
**A.** The value was 1 µM.

**Q.** And the “Effect on CP55,940-induced” value (CB1 wild-type receptor [3])?
**A.** The value was “Antagonizing”.

**Q.** And the “Concentration giving complete inhibition of basal [35S]GTPγS binding” value (CB1 wild-type receptor [3]; absence of orthosteric ligand, 5 μM GDP)?
**A.** Its value is 10 µM.

**Q.** With CCCCCCC(C)(C)c1ccc([C@@H]2C[C@H](O)CC[C@H]2CCCO)c(O)c1 [CP55,940, 2-[(1R,2R,5R)-5-hydroxy-2-(3-hydroxypropyl)cyclohexyl]-5-(2-methyloctan-2-yl)phenol, reference compound] as the molecule, how does the “Emax of CP55,940-induced [35S]GTPγS binding” value (CB1 wild-type receptor [3]; in the absence of allosteric modulator (11j), mean ± S.E.) read?
**A.** Its value is 113.0 ± 2.6 fmol/mg.
